Experimental data reported in patent publication US20100190832A1, “Mechanism-based inhibitors of transthyretin amyloidosis: studies with biphenyl ethers and structural templates” (NATIONAL INSTITUTE OF IMMUNOLOGY., priority 2008, published 2010).
Read-outs that look alike come from different tables or passages of the source.

Biological target: T1, WT-TTR (Homo sapiens, UniProt P02766)
T1 construct: made in house
Assay: Stagnant acid-mediated TTR aggregation (fibril formation) assay, turbidity at 340 nm
Format: biochemical
Conditions: for remaining activity at 100 µM / remaining activity at 50 µM: 72 h; for remaining activity at 50 µM: read-out: % FF at 50 μM
Procedure: Stagnant Acid-Mediated TTR Aggregation Assay.
After 1 h, the samples were diluted with 0.5 ml of 200 mM sodium acetate buffer containing 100 mM KCl and 1 mM EDTA. Samples after mild vortexing were incubated at 37° C. for the desired amount of time without stirring to evaluate the efficacy of the inhibitors. The extent of aggregation was probed by turbidity measurements at 340 nm using Tecan GENios microplate reader. […] The extent of TTR fibril formation in the absence of inhibitor was defined to be 100%. […] All experiments were done in triplicate. […] The IC50 was determined by plotting mean of % inhibition vs log and fitted to sigmoid equation:
The experiments were conducted at 25° C. After 1 h, the samples were diluted with 0.5 mL of 200 mM sodium acetate buffer pH 4.4 containing 100 mM KCl and 1 mM EDTA, vortexed, and incubated at 37° C. for 72 h. […] The stoichiometry of the binding of the inhibitors was determined by HPLC as described by Green et al., N. S. Palaninathan, S, L, Sacchettini, J. e. […] Dissociation constant of binding of these compounds to TTR was determined by fluorescence titration, and data were fitted into the Adair equation for two bind mg.

[1] = pH 4.4, compound 100 μM, WT-TTR 7.2 μM, pH 4.4, 37° C., read-out: % FF
[2] = pH 4.4, compound 100 μM, WT-TTR 7.2 μM, pH 4.4, 37° C., read-out: % Inhibition
[3] = biphenyl ether 50 μM, WT-TTR 7.2 μM

Structure (SMILES)	remaining activity at 100 µM [1]	inhibition at 100 µM [2]	further results
O=C1OC(c2ccc(Cl)cc2Cl)=N/C1=C\c1cccs1 [Compound K075-5819]	136%	0%	–
O=[N+]([O-])c1ccc(Cl)cc1Sc1nc2ccccc2s1 [Compound 2369-0691]	8.2%	91.8%	–
O=C1CSC(c2ccc(Cl)cc2Cl)N1c1ccc(Cl)cc1 (stereo not shown) [Compound 8004-9890]	20.3%	79.7%	–
O=C(O)CCc1nc(-c2cccs2)no1 [Compound C066-2523]	32.1%	67.9%	–
CSC1=NSC2=NC(=O)/C(=C\c3ccc(O)cc3)C(=N)N12 [Compound C146-0184]	72.7%	27.3%	–
NC(=O)CSc1ncc(-c2ccc(Cl)cc2)[nH]1 [Compound C290-0041]	39.2%	60.8%	–
COc1ccccc1NC(=S)N(CCCN1CCCCCC1)Cc1cccs1 [Compound C087-0823]	104%	0%	–
O=C1OC(/C=C/c2ccc(Cl)cc2Cl)=NC/1=C\c1cccs1 [Compound K088-1892]	294%	0%	–
FC(F)(F)c1cccc(NC(=S)N(CCCN2CCCCC2)Cc2cccs2)c1 [Compound C087-1176]	86.7%	13.3%	–
CCC(=O)NC(c1ccc2c(c1)OCO2)c1cc(Cl)c2cccnc2c1O (stereo not shown) [Compound K839-0017]	41.9%	58.1%	–
O=C(NC(c1ccccc1)c1cc(Cl)c2cccnc2c1O)c1cccnc1 (stereo not shown) [Compound K839-0113]	29.6%	70.4%	–
Cc1nc2c(ccc3ccccc32)c(O)c1CN1CCOCC1 [Compound 3453-1337]	69.6%	30.4%	–
CCCCC1NC(C(=O)O)CS1 (stereo not shown) [Compound K085-0025]	128%	0%	–
COc1cc(C=O)ccc1Oc1ccc([N+](=O)[O-])cc1[N+](=O)[O-] [Compound 16]	–	–	remaining activity at 50 µM [3]: 66%
O=C(O)c1cccc(-c2ccc(/C=C3\SC(=S)N(c4cccc(C(F)(F)F)c4)C3=O)o2)c1 [Compound 2027-0438]	449%	0%	–
CCOc1cccc2c1OC(c1cccc(Cl)c1)N1N=C(c3cccs3)CC21 (stereo not shown) [Compound K805-0132]	–	0%	–
O=C1/C(=C\c2ccc(-c3ccc(Cl)cc3)o2)SC(=S)N1c1cccc(Cl)c1 [Compound 1934-0113]	107%	0%	–
O=Cc1ccc(Oc2ccccc2)c(O)c1 [Compound 2]	–	–	remaining activity at 50 µM: 112%
O=C(NC(c1cccc([N+](=O)[O-])c1)c1cc(Cl)c2cccnc2c1O)c1cccnc1 (stereo not shown) [Compound K839-0117]	72.8%	27.2%	–
COc1cc(CO)ccc1Oc1ccc([N+](=O)[O-])cc1[N+](=O)[O-] [Compound 19]	–	–	remaining activity at 50 µM: 28%; IC50 (Table 3, WT-TTR 7.2 μM, read-out: IC50): 20 µM
O=C(O)C1CSC(c2c(F)cccc2Cl)N1 (stereo not shown) [Compound K085-0006]	20.3%	79.7%	–
CC(C)C(=O)NC(c1ccccc1)c1ccc2cccnc2c1O (stereo not shown) [Compound K839-0067]	4.6%	95.4%	–
COc1cc(CCl)ccc1Oc1ccc([N+](=O)[O-])cc1[N+](=O)[O-] [Compound 18]	–	–	remaining activity at 50 µM [3]: 79%
O=C(O)CCCCCN1C(=O)/C(=C/c2c[nH]c3ccccc23)SC1=S [Compound 2279-3516]	–	–	remaining activity at 100 µM (pH 4.4, read-out: % FF): 126%; inhibition at 100 µM (pH 4.4): 0%
Cc1ccccc1Nc1c(-c2ccc(O)cc2)nc2ccc(Cl)cn12 [Compound C273-0223]	130%	0%	–
Nc1cc(O)nc(SCC(=O)N2CCOCC2)n1 [Compound 3996-0165]	112%	0%	–
Oc1ccccc1-c1nnc(S)o1 [Compound 0350-0160]	13.8%	86.2%	–
COc1cc(CO)ccc1Oc1ccccc1 [Compound 3]	–	–	remaining activity at 50 µM: 61.2%
O=C(O)C1CSC(c2ccc([N+](=O)[O-])cc2)N1 (stereo not shown) [Compound K085-0004]	119%	0%	–
O=C(NCc1ccco1)c1cc(Sc2cccc(Cl)c2)nc2ccccc12 [Compound K784-7215]	60.7%	39.3%	–
